The record followed here is ChEMBL document CHEMBL3244329, “Nicotinamide adenine dinucleotide phosphate-decanaldehyde adduct as an inhibitor of beef brain NADP-linked aldehyde reductase” (J Med Chem, 1979).

Sequence of Aldo-keto reductase family 1 member A1 (Q3ZCJ2 2-325 limits assumed): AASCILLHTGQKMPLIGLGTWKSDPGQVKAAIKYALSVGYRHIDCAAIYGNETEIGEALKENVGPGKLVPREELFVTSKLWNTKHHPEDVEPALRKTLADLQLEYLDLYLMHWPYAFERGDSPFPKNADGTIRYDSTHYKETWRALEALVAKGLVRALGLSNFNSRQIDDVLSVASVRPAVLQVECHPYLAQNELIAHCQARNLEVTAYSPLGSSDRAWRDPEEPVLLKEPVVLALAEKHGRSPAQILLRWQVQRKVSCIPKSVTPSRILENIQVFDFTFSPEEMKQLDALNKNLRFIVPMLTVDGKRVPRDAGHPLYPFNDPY

The experiment concerns the target Aldo-keto reductase family 1 member A1 (Bos taurus, UniProt Q3ZCJ2). Nature of the experiment: Inhibition of beef brain NADP-dependent aldehyde reductase using p-nitrobenzaldehyde by competitive inhibition assay.
As to `CCC1C(O)NC(=O)C2=CN([C@@H]3O[C@H](COP(=O)(O)O[C@H]4[C@@H](O)[C@H](n5cnc6c(N)ncnc65)O[C@@H]4COP(=O)(O)OP(=O)(O)O)[C@@H](O)[C@H]3O)C=C[C@H]21` (some centres undefined), the affinity corresponds to a Ki of 13 µM.
Under `CCCCCCCCC1C(O)NC(=O)C2=CN([C@@H]3O[C@H](COP(=O)(O)O[C@H]4[C@@H](O)[C@H](n5cnc6c(N)ncnc65)O[C@@H]4COP(=O)(O)OP(=O)(O)O)[C@@H](O)[C@H]3O)C=C[C@H]21` (some centres undefined) stands 2.3 µM; under `Nc1ncnc2c1ncn2[C@@H]1O[C@H](COP(=O)(O)OP(=O)(O)O)[C@@H](OP(=O)(O)OC[C@H]2O[C@@H](N3C=C[C@@H]4C(=C3)C(=O)NC(O)C4Cc3ccccc3)[C@H](O)[C@@H]2O)[C@H]1O` (some centres undefined), 7 µM.
The result for `Nc1ncnc2c1ncn2[C@@H]1O[C@H](COP(=O)(O)OP(=O)(O)O)[C@@H](OP(=O)(O)OC[C@H]2O[C@@H](N3C=C[C@@H]4C(=C3)C(=O)NC(O)C4c3ccccc3)[C@H](O)[C@@H]2O)[C@H]1O` (some centres undefined) reads 5.1 µM.

A word on the Ki: it is the dissociation constant of the complex between target and ligand, obtained from inhibition or displacement.
